“Also recorded” adds a separate entry of the source.
Experiments:
[1] = target: Candida intermedia GXS1 variant Phe38 Ile39 Met40 (F38I39M40; motif G-G-F-I-M-G, SEQ ID NO: 4; parent GXS1 SEQ ID NO: 1) (Sungouiella intermedia, UniProt Q2MEV7, F40M/L39I/V38F); type: cell-based; settings: glucose at levels of 5 g/L; S. cerevisiae EX.12
Procedure: Growth rate measurements—All exponential growth rates were measured and calculated according to the method previously described using a Bioscreen C (Growth Curves USA, Piscataway, N.J.) and a MATLAB script. The Bioscreen C measures online optical density for easy and accurate measurement of the growth curves of up to 200 strains at one time. Error was calculated based on biological triplicate in all cases. In all cases, the Bioscreen C was set to maintain a temperature of 30° C., employ high continuous shaking, and to measure optical density every 10 minutes. A single carbon source per well was used in all experiments save one.

[2] = target: T1, Candida intermedia GXS1 variant Phe38 Ile39 Met40 (F38I39M40; V38F/L39I/F40M; motif G-G-F-I-M-G, SEQ ID NO: 4; parent GXS1 SEQ ID NO: 1) (Sungouiella intermedia, UniProt Q2MEV7, F40M/L39I/V38F); assay: Radiolabeled xylose uptake kinetics, gxs1 Phe38 Ile39 Met40 triple mutant; type: cell-based
T1 construct: 14C-xylose uptake
T1 sequence (Q2MEV7 1-522 V38F/L39I/F40M): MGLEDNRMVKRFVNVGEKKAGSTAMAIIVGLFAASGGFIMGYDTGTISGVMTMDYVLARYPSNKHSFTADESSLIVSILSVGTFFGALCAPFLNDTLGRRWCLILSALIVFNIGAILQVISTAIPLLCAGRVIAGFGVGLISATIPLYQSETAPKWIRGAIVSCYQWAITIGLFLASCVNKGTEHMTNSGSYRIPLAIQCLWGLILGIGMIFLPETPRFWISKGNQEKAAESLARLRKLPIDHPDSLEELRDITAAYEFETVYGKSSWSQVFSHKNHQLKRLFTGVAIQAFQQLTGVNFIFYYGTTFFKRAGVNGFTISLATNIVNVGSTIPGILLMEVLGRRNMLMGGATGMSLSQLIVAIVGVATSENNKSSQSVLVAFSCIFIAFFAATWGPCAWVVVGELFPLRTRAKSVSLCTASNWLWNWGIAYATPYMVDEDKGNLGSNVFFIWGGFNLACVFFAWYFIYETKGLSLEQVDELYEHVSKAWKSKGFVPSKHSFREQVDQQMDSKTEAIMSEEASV
Procedure: (§1) Radiolabelled xylose uptake experiments were performed to quantify the improvement of transport kinetics in the Phe^38 Ile^39 Met^40 triple mutant. […] An increased KM was observed as well (FIG. 5E), a phenotype observed in previous efforts to engineer this transporter (38). Nevertheless, the binding affinity is still quite high for practical culturing at a value corresponding to around 0.1 g/L (Table 2).
(§2) Strains, media, and plasmids—Molecular cloning and standard culturing techniques with E. coli DH10B were performed according to Sambrook (46). S. cerevisiae EX.12 was used for all yeast experiments and was constructed as previously described (38). All transporters were cloned into p414-TEF, a standard yeast shuttle vector created by Mumberg (47). Yeast synthetic complete media was used for culture and experimental growth media. CSM-Trp was used when S. cerevisiae EX.12 was carrying a transporter. Carbon sources were provided at 20 g/L.
(§3) Radiolabeled xylose uptake—Uptake of ^14C labeled xylose was used to determine the Michaelis-Menten parameters for C. intermedia GXS1 and the Phe^38 Ile^39 Met^40 triple mutant. The method was performed as previously described (38).

[3] = target: T2, Candida intermedia GXS1 transporter protein, wild type, SEQ ID NO: 1 (Sungouiella intermedia, UniProt Q2MEV7); assay: Radiolabeled xylose uptake kinetics, wild type GXS1; type: cell-based; settings: gene in p414-TEF, S. cerevisiae EX.12
T2 construct: 14C-xylose uptake
T2 sequence (Q2MEV7 1-522): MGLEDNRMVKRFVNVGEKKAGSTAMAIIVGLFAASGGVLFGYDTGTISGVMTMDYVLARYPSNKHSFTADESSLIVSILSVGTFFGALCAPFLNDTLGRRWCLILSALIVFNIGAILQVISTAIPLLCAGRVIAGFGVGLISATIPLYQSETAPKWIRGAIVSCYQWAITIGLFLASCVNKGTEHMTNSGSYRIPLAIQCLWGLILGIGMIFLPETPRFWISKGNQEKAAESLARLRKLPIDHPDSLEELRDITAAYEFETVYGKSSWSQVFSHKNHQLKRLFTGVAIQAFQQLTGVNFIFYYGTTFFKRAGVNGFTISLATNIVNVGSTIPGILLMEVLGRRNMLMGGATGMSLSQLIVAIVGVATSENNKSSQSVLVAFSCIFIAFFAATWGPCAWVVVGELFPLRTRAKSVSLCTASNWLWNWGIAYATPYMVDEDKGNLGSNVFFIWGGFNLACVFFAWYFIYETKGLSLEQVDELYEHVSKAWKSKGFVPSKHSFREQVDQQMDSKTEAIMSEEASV
Procedure: as §1, §2, §3

[4] = system: Candida intermedia GXS1 variant Phe38 Ile39 Met40 (F38I39M40; V38F/L39I/F40M; motif G-G-F-I-M-G, SEQ ID NO: 4; parent GXS1 SEQ ID NO: 1); assay: Radiolabeled xylose uptake kinetics, gxs1 Phe38 Ile39 Met40 triple mutant; type: cell-based; settings: triple mutant versus wild type GXS1
Procedure: as §1, §2, §3

[5] = substrate: OC1OC[C@@H](O)[C@H](O)[C@H]1O; assay: as above; type: cell-based
Procedure: as §1, §2, §3

[6] = substrate: OC1OC[C@@H](O)[C@H](O)[C@H]1O; assay: Radiolabeled xylose uptake kinetics, wild type GXS1; type: cell-based, Candida intermedia; settings: other: radiolabeled xylose uptake; gene in p414-TEF; S. cerevisiae EX.12
Procedure: as §1, §2, §3

OC[C@H]1OC(O)[C@H](O)[C@@H](O)[C@@H]1O (stereo partly shown) [glucose]
inhibition of xylose growth by glucose [1]: still appear to inhibit xylose growth
radiolabelled xylose uptake in the presence of glucose (inhibition by glucose) ([2]; glucose concentration not stated): no radiolabelled xylose uptake was detected

OC1OC[C@@H](O)[C@H](O)[C@H]1O (stereo partly shown) [xylose]
VMAX (xylose) [3]: 7.23 ± 0.6 nmol min^−1 gDCW^−1
VMAX (xylose) ([2]; radiolabeled xylose uptake, gene in p414-TEF, S. cerevisiae EX.12): 15.01 ± 2.38 nmol min^−1 gDCW^−1
Km ([2]; read-out: binding affinity / KM (xylose), as g/L, conversion of KM): ~666 µM
KM change compared to wild type (xylose) [4]: increased KM; also recorded: significantly increased
Vmax change compared to wild type (xylose) [4]: doubling in Vmax

B1: Candida intermedia GXS1 variant Phe38 Ile39 Met40 (F38I39M40; V38F/L39I/F40M; motif G-G-F-I-M-G, SEQ ID NO: 4; parent GXS1 SEQ ID NO: 1) (Sungouiella … (protein)
chain: MGLEDNRMVKRFVNVGEKKAGSTAMAIIVGLFAASGGFIMGYDTGTISGVMTMDYVLARYPSNKHSFTADESSLIVSILSVGTFFGALCAPFLNDTLGRRWCLILSALIVFNIGAILQVISTAIPLLCAGRVIAGFGVGLISATIPLYQSETAPKWIRGAIVSCYQWAITIGLFLASCVNKGTEHMTNSGSYRIPLAIQCLWGLILGIGMIFLPETPRFWISKGNQEKAAESLARLRKLPIDHPDSLEELRDITAAYEFETVYGKSSWSQVFSHKNHQLKRLFTGVAIQAFQQLTGVNFIFYYGTTFFKRAGVNGFTISLATNIVNVGSTIPGILLMEVLGRRNMLMGGATGMSLSQLIVAIVGVATSENNKSSQSVLVAFSCIFIAFFAATWGPCAWVVVGELFPLRTRAKSVSLCTASNWLWNWGIAYATPYMVDEDKGNLGSNVFFIWGGFNLACVFFAWYFIYETKGLSLEQVDELYEHVSKAWKSKGFVPSKHSFREQVDQQMDSKTEAIMSEEASV
notes: 14C-xylose uptake
Km ([5]; other: conversion of KM): 0.1 g/L
Km ([5]; other: radiolabeled xylose uptake, gene in p414-TEF, S. cerevisiae EX.12): 721 ± 116 µM

B2: Candida intermedia GXS1 transporter protein, wild type, SEQ ID NO: 1 (Sungouiella intermedia) (protein)
chain: MGLEDNRMVKRFVNVGEKKAGSTAMAIIVGLFAASGGVLFGYDTGTISGVMTMDYVLARYPSNKHSFTADESSLIVSILSVGTFFGALCAPFLNDTLGRRWCLILSALIVFNIGAILQVISTAIPLLCAGRVIAGFGVGLISATIPLYQSETAPKWIRGAIVSCYQWAITIGLFLASCVNKGTEHMTNSGSYRIPLAIQCLWGLILGIGMIFLPETPRFWISKGNQEKAAESLARLRKLPIDHPDSLEELRDITAAYEFETVYGKSSWSQVFSHKNHQLKRLFTGVAIQAFQQLTGVNFIFYYGTTFFKRAGVNGFTISLATNIVNVGSTIPGILLMEVLGRRNMLMGGATGMSLSQLIVAIVGVATSENNKSSQSVLVAFSCIFIAFFAATWGPCAWVVVGELFPLRTRAKSVSLCTASNWLWNWGIAYATPYMVDEDKGNLGSNVFFIWGGFNLACVFFAWYFIYETKGLSLEQVDELYEHVSKAWKSKGFVPSKHSFREQVDQQMDSKTEAIMSEEASV
notes: 14C-xylose uptake
Km [6]: 25.6 ± 65.9 µM

Source: US9926347B2, “Methods for engineering sugar transporter preferences” (Board of Regents, The University of Texas System, priority 2013, dated 2018)
